Tests used:
[1] = system: rat; settings: Fertility (Segment I), sprague dawley, Oral, Gavage/Intubation, dose end: 7 GD
[2] = system: primate; settings: Sub-acute repeat dose toxicity, macaque, Oral, Gavage/Intubation, dose end: 1 month, group: systemic
[3] = system: rat; settings: Prenatal developmental toxicity study; sprague dawley; Oral; Gavage/Intubation; dose end: 17 GD; group: maternal; systemic / in life observation / body weight / body weight + systemic / in life observation / body weight / body weight gain + systemic / in…
[4] = system: primate; settings: Chronic toxicity, macaque, Oral, Gavage/Intubation, dose end: 6 month, group: systemic
[5] = system: rat; settings: Sub-acute repeat dose toxicity; sprague dawley; Oral; Gavage/Intubation; dose end: 28 day; group: systemic; systemic / in life observation / body weight / body weight gain + systemic / in life observation / food consumption / food consumption + …
[6] = system: rat; settings: Chronic toxicity, sprague dawley, Oral, Gavage/Intubation, dose end: 6 month, group: systemic
[7] = system: rat; settings: Prenatal developmental toxicity study; sprague dawley; Oral; Gavage/Intubation; dose end: 17 GD; group: maternal; systemic / in life observation / body weight / body weight gain + systemic / in life observation / clinical signs / fur (altered appearance…
[8] = system: dog; settings: Sub-acute repeat dose toxicity, beagle, Oral, Capsule, dose end: 1 month, group: systemic
[9] = system: rabbit; settings: Prenatal developmental toxicity study, new zealand white, Oral, Gavage/Intubation, dose end: 19 GD
[10] = system: rat; settings: Sub-acute repeat dose toxicity, Oral, Gavage/Intubation, dose end: 7 day, group: systemic
[11] = system: rat; settings: Sub-acute repeat dose toxicity, Oral, Gavage/Intubation, dose end: 7 day, group: systemic; remark: listed apart in the source
[12] = system: primate; settings: Sub-acute repeat dose toxicity; Oral; Gavage/Intubation; dose end: 5 day; group: systemic; systemic / in life observation / food consumption / food consumption + systemic / in life observation / clinical signs / emesis + systemic…
[13] = system: primate; settings: Sub-acute repeat dose toxicity; Oral; Gavage/Intubation; dose end: 5 day; group: systemic; systemic / clinical chemistry / aspartate aminotransferase (ast/sgot) / aspartate aminotransferase (ast/sgot) + systemic / clinical …
[14] = system: rat; settings: Sub-acute repeat dose toxicity, Oral, Gavage/Intubation, dose end: 28 day, group: systemic
[15] = system: rat; settings: Sub-acute repeat dose toxicity; Oral; Gavage/Intubation; dose end: 4 day; group: systemic; systemic / in life observation / clinical signs / impaired reflex, nos
[16] = group: maternal, reproductive / reproductive performance / estrous cycle / abnormal
[17] = group: parental, systemic / in life observation / body weight / body weight gain + systemic / in life observation / clinical signs / piloerection + systemic…
[18] = group: parental, systemic / in life observation / body weight / body weight gain + systemic / in life observation / food consumption / food consumption + …
[19] = systemic / in life observation / clinical signs / [other] + systemic / in life observation / clinical signs / defecation (diarrhea) + …
[20] = systemic / in life observation / food consumption / food consumption
[21] = systemic / clinical chemistry / alanine aminotransferase (alt/sgpt) / alanine aminotransferase (alt/sgpt)
[22] = systemic / clinical chemistry / alanine aminotransferase (alt/sgpt) / alanine aminotransferase (alt/sgpt) + systemic / pathology microscopic…
[23] = systemic / clinical chemistry / [other] / [other] + systemic / clinical chemistry / phosphorus / phosphate + systemic / clinical chemistry…
[24] = systemic / clinical chemistry / [other] / [other] + systemic / clinical chemistry / phosphorus / phosphate + systemic / in life observation…
[25] = systemic / clinical chemistry / alanine aminotransferase (alt/sgpt) / alanine aminotransferase (alt/sgpt) + systemic / clinical chemistry / …
[26] = group: developmental, developmental / developmental malformation / eye / open eye
[27] = group: maternal, systemic / in life observation / body weight / body weight gain + systemic / in life observation / food consumption / food consumption + …
[28] = group: maternal, systemic / pathology gross / pancreas / irregular surface + systemic / pathology gross / pancreas / reduced size
[29] = systemic / hematology / blood clotting / blood clotting - prothrombin time + systemic / organ weight / heart / relative to body weight + …
[30] = systemic / hematology / blood clotting / blood clotting - prothrombin time + systemic / organ weight / liver / absolute + systemic / organ …
[31] = systemic / hematology / blood clotting / blood clotting - prothrombin time + systemic / hematology / lymphocyte / lymphocyte + systemic / in…
[32] = systemic / hematology / blood clotting / blood clotting - activated partial thromboplastin time + systemic / hematology / blood clotting / …
[33] = systemic / hematology / mean corpuscular hemoglobin (mch) / mean corpuscular hemoglobin (mch) + systemic / hematology / mean corpuscular …

SMILES: COc1cc(-c2nc(NC(=O)c3cc4cc(C)cc(C)c4n3CC(=O)O)sc2CCC2CCCCC2)c(OC)cc1Cl.O=C(O)C(F)(F)F
- LEL [1, 16]: 200 mg/kg/day
- LOAEL [1, 16]: > 1000 mg/kg/day
- NEL [1, 16]: 50 mg/kg/day
- NOAEL [1, 16]: ≥ 1000 mg/kg/day
- LOAEL [1, 17]: > 1000 mg/kg/day
- NOAEL [1, 17]: ≥ 1000 mg/kg/day
- LEL [1, 18]: 50 mg/kg/day
- NEL [1, 18]: < 50 mg/kg/day
- LOAEL [2, 19]: 5 mg/kg/day
- NOAEL [2, 19]: 1 mg/kg/day
- LEL [2, 20]: 1 mg/kg/day
- NEL [2, 20]: < 1 mg/kg/day
- LEL [3]: 250 mg/kg/day
- LOAEL [3]: > 500 mg/kg/day
- NEL [3]: < 250 mg/kg/day
- NOAEL [3]: ≥ 500 mg/kg/day
- LEL [4, 21]: 0.6 mg/kg/day
- NEL [4, 21]: < 0.6 mg/kg/day
- LOAEL [4, 22]: 3 mg/kg/day
- NOAEL [4, 22]: 0.6 mg/kg/day
- LEL [5]: 1 mg/kg/day
- LOAEL [5]: > 30 mg/kg/day
- NEL [5]: < 1 mg/kg/day
- NOAEL [5]: ≥ 30 mg/kg/day
- LOAEL [6, 23]: > 250 mg/kg/day
- NOAEL [6, 23]: ≥ 250 mg/kg/day
- LEL [6, 24]: 1 mg/kg/day
- NEL [6, 24]: < 1 mg/kg/day
- LEL [7]: 50 mg/kg/day
- LOAEL [7]: > 1000 mg/kg/day
- NEL [7]: < 50 mg/kg/day
- NOAEL [7]: ≥ 1000 mg/kg/day
- LOAEL [8, 25]: > 25 mg/kg/day
- NOAEL [8, 25]: ≥ 25 mg/kg/day
- LEL [8, 22]: 1 mg/kg/day
- NEL [8, 22]: < 1 mg/kg/day
- LEL [9, 26]: 10 mg/kg/day
- LOAEL [9, 26]: 10 mg/kg/day
- NEL [9, 26]: 3 mg/kg/day
- NOAEL [9, 26]: 3 mg/kg/day
- LOAEL [9, 27]: > 10 mg/kg/day
- NOAEL [9, 27]: ≥ 10 mg/kg/day
- LEL [9, 28]: 0.5 mg/kg/day
- NEL [9, 28]: < 0.5 mg/kg/day

SMILES: O=C(CO)N1CCC(c2[nH]nc(-c3ccc(Cl)cc3F)c2-c2ccncn2)CC1
- LOAEL [10, 29]: > 2000 mg/kg/day
- NOAEL [10, 29]: ≥ 2000 mg/kg/day
- LEL [10, 30]: 200 mg/kg/day
- NEL [10, 30]: < 200 mg/kg/day
- LOAEL [11, 31]: > 2000 mg/kg/day
- NOAEL [11, 31]: ≥ 2000 mg/kg/day
- LEL [11, 29]: 200 mg/kg/day
- NEL [11, 29]: < 200 mg/kg/day
- LEL [12]: 600 mg/kg/day
- LOAEL [12]: > 600 mg/kg/day
- NEL [12]: < 600 mg/kg/day
- NOAEL [12]: ≥ 600 mg/kg/day
- LEL [13]: 600 mg/kg/day
- LOAEL [13]: > 600 mg/kg/day
- NEL [13]: < 600 mg/kg/day
- NOAEL [13]: ≥ 600 mg/kg/day
- LOAEL [14, 32]: > 2000 mg/kg/day
- NOAEL [14, 32]: ≥ 2000 mg/kg/day
- LEL [14, 33]: 20 mg/kg/day
- NEL [14, 33]: < 20 mg/kg/day
- LEL [15]: 50 mg/kg/day
- LOAEL [15]: > 2000 mg/kg/day
- NEL [15]: < 50 mg/kg/day
- NOAEL [15]: ≥ 2000 mg/kg/day
